Experimental data as given in ChEMBL document CHEMBL1201862, “PubChem BioAssay data set” (2004).
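Where inhibition never reached the appropriate level, the endpoint shown equals the highest concentration tested. Otherwise, values were interpolated linearly from a five-concentration, 48-hour dose response in 96-well plates. At the GI50, growth is halved.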 The source made the active and inactive calls. No stated cut-off is given here; in the data, active = GI50 up to about 1.1 µM and inactive = higher.

Key:
Assay in all cases: inhibition of tumour cell growth, NCI panel, 48 h
SK-MEL-5 = system: SK-MEL-5
UACC-62 = system: UACC-62
RXF 393 = system: RXF 393
SR = system: SR
BT-549 = system: BT-549
SW-620 = system: SW-620
NCI-H226 = system: NCI-H226
NCI-H522 = system: NCI-H522
CCRF-CEM = system: CCRF-CEM
IGROV-1 = system: IGROV-1
COLO 205 = system: COLO 205
HT-29 = system: HT-29
786-0 = system: 786-0
NCI-H23 = system: NCI-H23
SNB-19 = system: SNB-19
EKVX = system: EKVX
HCT-116 = system: HCT-116
SK-MEL-2 = system: SK-MEL-2
M14 = system: M14
CAKI-1 = system: CAKI-1
MDA-N = system: MDA-N
HCT-15 = system: HCT-15
PC-3 = system: PC-3
HOP-92 = system: HOP-92
OVCAR-5 = system: OVCAR-5
ACHN = system: ACHN
Hs-578T = system: Hs-578T
RPMI-8226 = system: RPMI-8226
Malme-3M = system: Malme-3M
T47D = system: T47D
SK-MEL-28 = system: SK-MEL-28
OVCAR-4 = system: OVCAR-4
SF-295 = system: SF-295
SN12C = system: SN12C
MOLT-4 = system: MOLT-4
UACC-257 = system: UACC-257
UO-31 = system: UO-31
TK-10 = system: TK-10
MDA-MB-231 = system: MDA-MB-231
OVCAR-8 = system: OVCAR-8
NCI-H460 = system: NCI-H460
MDA-MB-435 = system: MDA-MB-435
KM12 = system: KM12
HL-60 = system: HL-60
SK-OV-3 = system: SK-OV-3
A498 = system: A498
U-251 = system: U-251
SF-268 = system: SF-268
K562 = system: K562
NCI/ADR-RES = system: NCI/ADR-RES
DU-145 = system: DU-145
SNB-75 = system: SNB-75
HOP-62 = system: HOP-62
HCC 2998 = system: HCC 2998
A549 = system: A549
OVCAR-3 = system: OVCAR-3
LOX IMVI = system: LOX IMVI
SF-539 = system: SF-539

`O=c1[nH]c(-n2[nH]c3c(c2=O)CCCC3)nc(O)c1-c1ccccc1` was tested, and the GI50 (SK-MEL-5) was > 100 µM (inactive), the GI50 (UACC-62) was > 100 µM (inactive) and the GI50 (RXF 393) was > 100 µM (inactive). For the same compound, the GI50 (SR) was > 100 µM (inactive), the GI50 (BT-549) was > 100 µM (inactive) and the GI50 (SW-620) was > 100 µM (inactive). For the same compound, the GI50 (NCI-H226) was > 100 µM (inactive), the GI50 (NCI-H522) was > 100 µM (inactive) and the GI50 (CCRF-CEM) was > 100 µM (inactive). The GI50 (IGROV-1) was > 100 µM (inactive), the GI50 (COLO 205) was > 100 µM (inactive) and the GI50 (HT-29) was > 100 µM (inactive). The GI50 (786-0) was > 100 µM (inactive), the GI50 (NCI-H23) was > 100 µM (inactive) and the GI50 (SNB-19) was > 100 µM (inactive). For the same compound, the GI50 (EKVX) was > 100 µM (inactive), the GI50 (HCT-116) was > 100 µM (inactive) and the GI50 (SK-MEL-2) was > 100 µM (inactive). For the same compound, the GI50 (M14) was > 100 µM (inactive), the GI50 (CAKI-1) was > 100 µM (inactive) and the GI50 (MDA-N) was > 100 µM (inactive). The GI50 (HCT-15) was greater than 100 µM, the GI50 (PC-3) was > 100 µM (inactive) and the GI50 (HOP-92) was > 100 µM (inactive). The GI50 (OVCAR-5) was > 100 µM (inactive), the GI50 (ACHN) was > 100 µM (inactive) and the GI50 (Hs-578T) was > 100 µM (inactive). For the same compound, the GI50 (RPMI-8226) was > 100 µM (inactive), the GI50 (Malme-3M) was > 100 µM (inactive) and the GI50 (T47D) was > 100 µM (inactive). The GI50 (SK-MEL-28) was > 100 µM (inactive), the GI50 (OVCAR-4) was > 100 µM (inactive) and the GI50 (SF-295) was > 100 µM (inactive). The GI50 (SN12C) was > 100 µM (inactive), the GI50 (MOLT-4) was > 100 µM (inactive) and the GI50 (UACC-257) was > 100 µM (inactive). For the same compound, the GI50 (UO-31) was > 100 µM (inactive), the GI50 (TK-10) was > 100 µM (inactive) and the GI50 (MDA-MB-231) was > 100 µM (inactive). The GI50 (OVCAR-8) was > 100 µM (inactive), the GI50 (NCI-H460) was > 100 µM (inactive) and the GI50 (MDA-MB-435) was > 100 µM (inactive). For the same compound, the GI50 (KM12) was > 100 µM (inactive), the GI50 (HL-60) was > 100 µM (inactive) and the GI50 (SK-OV-3) was > 100 µM (inactive). The GI50 (A498) was > 100 µM (inactive), the GI50 (U-251) was > 100 µM (inactive) and the GI50 (SF-268) was > 100 µM (inactive). The GI50 (K562) was > 100 µM (inactive), the GI50 (NCI/ADR-RES) was > 100 µM (inactive) and the GI50 (DU-145) was > 100 µM (inactive).

`CCOC(=O)/C(C#N)=C/c1coc2cc(C)cc(C)c2c1=O` was tested, and the GI50 (SK-MEL-5) was > 100 µM (inactive), the GI50 (UACC-62) was > 100 µM (inactive) and the GI50 (RXF 393) was > 100 µM (inactive). For the same compound, the GI50 (SR) was > 100 µM (inactive), the GI50 (BT-549) was > 100 µM (inactive) and the GI50 (SW-620) was > 100 µM (inactive). The GI50 (NCI-H226) was > 100 µM (inactive), the GI50 (SNB-75) was > 100 µM (inactive) and the GI50 (NCI-H522) was > 100 µM (inactive). For the same compound, the GI50 (CCRF-CEM) was > 100 µM (inactive), the GI50 (IGROV-1) was > 100 µM (inactive) and the GI50 (COLO 205) was > 100 µM (inactive). For the same compound, the GI50 (HT-29) was > 100 µM (inactive), the GI50 (786-0) was > 100 µM (inactive) and the GI50 (NCI-H23) was > 100 µM (inactive). For the same compound, the GI50 (SNB-19) was > 100 µM (inactive), the GI50 (HOP-62) was > 100 µM (inactive) and the GI50 (EKVX) was > 100 µM (inactive). For the same compound, the GI50 (HCT-116) was > 100 µM (inactive), the GI50 (M14) was > 100 µM (inactive) and the GI50 (CAKI-1) was > 100 µM (inactive). The GI50 (MDA-N) was > 100 µM (inactive), the GI50 (HCT-15) was greater than 100 µM and the GI50 (PC-3) was > 100 µM (inactive). For the same compound, the GI50 (HCC 2998) was > 100 µM (inactive), the GI50 (A549) was > 100 µM (inactive) and the GI50 (HOP-92) was 95.1 µM (inactive). The GI50 (OVCAR-3) was 64.9 µM (inactive), the GI50 (OVCAR-5) was > 100 µM (inactive) and the GI50 (ACHN) was > 100 µM (inactive). For the same compound, the GI50 (Hs-578T) was > 100 µM (inactive), the GI50 (RPMI-8226) was > 100 µM (inactive) and the GI50 (LOX IMVI) was > 100 µM (inactive). For the same compound, the GI50 (Malme-3M) was 45.3 µM (inactive), the GI50 (T47D) was > 100 µM (inactive) and the GI50 (SK-MEL-28) was > 100 µM (inactive). For the same compound, the GI50 (SF-295) was 91.6 µM (inactive), the GI50 (SN12C) was > 100 µM (inactive) and the GI50 (MOLT-4) was > 100 µM (inactive). The GI50 (UACC-257) was > 100 µM (inactive), the GI50 (UO-31) was 59 µM (inactive) and the GI50 (TK-10) was > 100 µM (inactive). The GI50 (MDA-MB-231) was > 100 µM (inactive), the GI50 (OVCAR-8) was > 100 µM (inactive) and the GI50 (NCI-H460) was > 100 µM (inactive). For the same compound, the GI50 (MDA-MB-435) was > 100 µM (inactive), the GI50 (KM12) was > 100 µM (inactive) and the GI50 (SF-539) was > 100 µM (inactive). For the same compound, the GI50 (HL-60) was > 100 µM (inactive), the GI50 (SK-OV-3) was > 100 µM (inactive) and the GI50 (A498) was > 100 µM (inactive). The GI50 (U-251) was > 100 µM (inactive), the GI50 (SF-268) was 66.4 µM (inactive) and the GI50 (K562) was > 100 µM (inactive). For the same compound, the GI50 (NCI/ADR-RES) was > 100 µM (inactive) and the GI50 (DU-145) was > 100 µM (inactive).
